According to patent US6663881B2 (priority 1993, dated 2003):

Columns and labels:
[1] = system: Vascular smooth muscle (BO54) cells; format: cell-based, baboon
[2] = system: Vascular smooth muscle cells
[3] = system: Vascular smooth muscle (BO54) cells; format: cell-based, baboon; remark: listed apart in the source
[4] = system: balloon traumatized left carotid artery; assay: Periadventitial delivery of taxol crystals in pluronic gel, balloon traumatized rat carotid artery; format: in vivo, rats
Protocol: To further evaluate the efficacy of crystalline taxol to inhibit neointimal formation in rats, four groups of 5-6 adult male rats underwent balloon trauma of the left carotid artery followed immediately by periadventitial delivery of 1, 0.1, 0.01 or 0 mg of taxol crystals in 500 mg of a pluronic polymer in gel matrix. Fourteen days later, the rats were sacrificed, serum was collected and their carotid arteries were processed for histologic and morphometric analysis.

[5] = system: balloon traumatized left carotid artery; conditions: rat, in vivo
[6] = Biodistribution of 3H-cytochalasin B i.v. (radioactivity); format: in vivo, BALB/c mice
Protocol: ^3H-cytochalasin B (2 μg; 30 μCi/μg) was injected i.v. into BALB/c mice having urinary bladders that had been externally ligated. Animals were sacrificed at 15 minutes, 30 minutes, 2 hours or 16 hours post-injection. Organs were removed, blotted, weighed, air dried and assayed for radioactivity. Fifty −73% of the total injected dose was accounted for in the tissues sampled (blood, heart, brain, muscle, bone, lung, liver, spleen, stomach, kidney, intestines, and urinary bladder). Clearance of ^3H-cytochalasin B from the blood was extremely rapid with less than 1% of the injected dose in circulation by 15 minutes.

[7] = MTT activity in human liver slices after 24 hour exposure; format: cell-based
Protocol: The cytotoxity of ^3H-cytochalasin B and its subsequent metabolites was also assessed by evaluating dose dependent changes in mitochondrial function by monitoring 3-[4, 5-dimethylthiazol-2yl]-2, 5-diphenyltetrazolium bromide (MTT) activity following a 24 hour exposure of human liver slices to the test agent (Table 10).

[8] = system: balloon traumatized swine femoral arteries; assay: Tissue distribution of crystalline 3H-cytochalasin B after local delivery; set-up: species or system Yorkshire crossbred swine; conditions: in vivo
Protocol: The in vivo tissue distribution of cytochalasin B administered in crystalline form was evaluated in balloon traumatized swine femoral arteries after local delivery. A femoral artery of a Yorkshire crossbred swine was balloon traumatized by overinflation and rotation of a Vascu-Flo™ Silicone embolectomy catheter. Balloon trauma was immediately followed by intravascular delivery of 10 μg/ml ^3H-cytochalasin B crystals (Sigma Chemical Co., St. Louis, Mo.) in saline (saturated) for three minutes under 1 atm of pressure. Blood flow was resumed in the artery for five minutes prior to sacrifice of the animal.

[9] = Human liver slices distribution and metabolism study (HPLC); format: in vitro ADME
Protocol: ^3H-cytochalasin B at a dose of 1.5 or 8 μg/ml was mixed with viable or non-viable human liver slices and media, and the amount of ^3H-cytochalasin B in media or tissue assessed by HPLC (Tables 8 and 9).

[10] = Stability and metabolism in saline, human plasma and human whole blood (HPLC); format: in vitro ADME; conditions: 20 hours at 37° C.
Protocol: To determine the metabolism of ^3H-cytochalasin B in human blood, ^3H-cytochalasin B (8 μg/ml) was dissolved in saline; 1:1 dilution of saline and human plasma; or 1:1 dilution of saline and human whole blood.

[11] = 1.5 μg/ml, Media/viable tissue, 1 h
[12] = 1.5 μg/ml, Media/viable tissue, 1 h at 37° C.
[13] = 1.5 μg/ml, Media/viable tissue, 4 h
[14] = 8 μg/ml, Media/boiled tissue, 4 h
[15] = 8 μg/ml, Media/boiled tissue, 24 h

## CC(=O)O[C@@H]1/C=C\[C@@](C)(O)C(=O)[C@@H](C)C/C=C\[C@H]2[C@H](O)C(C)=C(C)[C@H]3C(Cc4ccccc4)NC(=O)[C@]132 (stereo partly shown) [cytochalasin C]
[1]
  MED, DNA synthesis assay: 0.01 µg/mL

## O=[N+]([O-])OCC(CO[N+](=O)[O-])O[N+](=O)[O-] [nitroglycerin]
[1]
  DNA synthesis inhibition compared with protein synthesis inhibition: to a greater extent than they inhibited protein synthesis

## CN[C@@H]1C[C@H]2O[C@@](C)([C@@H]1OC)n1c3ccccc3c3c4c(c5c6ccccc6n2c5c31)C(=O)NC4 [staurosporin]
[1]
  minimum effective dose (MED), DNA assay: 1 ng/mL
[2]
  cytotoxicity grade at in vitro effective dosage: 2
[3]
  minimum effective dose (MED), protein synthesis assay: 100 ng/mL

## Cc1ccc(C(=O)Nc2ccc(S(=O)(=O)O)c3cc(S(=O)(=O)O)cc(S(=O)(=O)O)c23)cc1NC(=O)c1cccc(NC(=O)Nc2cccc(C(=O)Nc3cc(C(=O)Nc4ccc(S(=O)(=O)O)c5cc(S(=O)(=O)O)cc(S(=O)(=O)O)c45)ccc3C)c2)c1 [suramin]
[1]
  DNA synthesis inhibition compared with protein synthesis inhibition: to a greater extent than they inhibited protein synthesis

## CC(=O)O[C@H]1C(=O)[C@@]2(C)[C@H]([C@H](OC(=O)c3ccccc3)[C@]3(O)C[C@H](OC(=O)[C@H](O)[C@@H](NC(=O)c4ccccc4)c4ccccc4)C(C)=C1C3(C)C)[C@]1(OC(C)=O)CO[C@@H]1C[C@@H]2O [taxol]
[4]; 0.01 mg
  neointimal area and neointimal/medial ratio vs control: reduction in their neointimal area and neointimal/medial ratio
  toxicity: no
[4]; 0.1 mg
  neointimal area and neointimal/medial ratio vs control: reduction in their neointimal area and neointimal/medial ratio
  toxicity: minimal
[4]; 1.0 mg
  toxicity: limited
[5]
  morphometry vs untreated controls: statistically significantly larger luminal areas and no neointimal proliferation
  post-surgical weight gain: delay in post-surgical weight gain

## ^3H-cytochalasin B
[6]; by 15 minutes
  injected dose in circulation: less than 1%
[6]; mouse, in vivo
  tissues with significant retention of 3H activity: Only liver, skeletal muscle and intestines showed significant retention
[7]
  cytotoxicity of agent or its metabolites: not cytotoxic
[8]
  tissue localization: localized predominantly to the adventitia
[9]
  total reactivity in the tissue: less than 20%
  total reactivity present in the media: greater than 80%
[9]; [11]
  % Metabolized of Extractable Activity: 43.0%
  % Non extractable Activity: 0.5%
[9]; [12]
  % Activity in Media: 84%
  % Activity in Tissue: 16%
[9]; [13]
  % Activity in Media: 84%
  % Activity in Tissue: 16%
  % Metabolized of Extractable Activity: 77.0%
[9]; 1.5 μg/ml, Media/viable tissue, 24 h
  % Metabolized of Extractable Activity: 98.7%
[9]; 8 μg/ml, Media Only, 1 h
  % Metabolized of Extractable Activity: 5%
[9]; 8 μg/ml, Media Only, 24 h
  % Metabolized of Extractable Activity: 5%
[9]; 8 μg/ml, Media/boiled tissue, 1 h
  % Non extractable Activity: 0.5%
[9]; [14]
  % Extractable Activity: 99.0%
  % Metabolized of Extractable Activity: 5%
  % Non extractable Activity: 1%
[9]; [15]
  % Activity in Media: 87%
  % Activity in Tissue: 13%
  % Metabolized of Extractable Activity: 5%
  % Non extractable Activity: 1.3%
[9]; 8 μg/ml, Media/viable tissue, 1 h
  % Metabolized of Extractable Activity: 24.2%
[9]; 8 μg/ml, Media/viable tissue, 4 h
  % Metabolized of Extractable Activity: 59.4%
[9]; 8 μg/ml, Media/viable tissue, 24 h
  % Metabolized of Extractable Activity: 98.0%
[10]; 8 μg/ml in 1:1 saline and human plasma
  metabolism: not metabolized
[10]; 8 μg/ml in 1:1 saline and human whole blood
  metabolism: metabolized by human whole blood
[10]; 8 μg/ml in saline
  metabolism: not metabolized
